This passage reports Ki results from ChEMBL document CHEMBL1126222, “Investigation of conformational specificity at GPIIb/IIIa: evaluation of conformationally constrained RGD peptides” (J Med Chem, 1992).

Assay [1] has as its target T1, Integrin alpha-IIb/beta-3 (Homo sapiens, UniProt P05106+P08514). Nature of the assay: Inhibition of [3H]Mba-(N-Me)Arg-Gly-Asp-Man binding to GPIIb/IIIa from human platelets reconstituted in liposomes.
Assay [2] has as its target T1, Integrin alpha-IIb/beta-3. Nature of the assay: Inhibition of [3H]Mba-(N-Me)Arg-Gly-Asp-Man binding to fibrinogen receptor of human platelets reconstituted in liposomes.
Assay [3] addresses T1, Integrin alpha-IIb/beta-3. Nature of the assay: Inhibition of [3H]Mba-(N-Me)Arg-Gly-Asp-Man binding to Fibrinogen Receptor from human platelets reconstituted in liposomes.

T1 sequence (P05106 27-788 limits assumed): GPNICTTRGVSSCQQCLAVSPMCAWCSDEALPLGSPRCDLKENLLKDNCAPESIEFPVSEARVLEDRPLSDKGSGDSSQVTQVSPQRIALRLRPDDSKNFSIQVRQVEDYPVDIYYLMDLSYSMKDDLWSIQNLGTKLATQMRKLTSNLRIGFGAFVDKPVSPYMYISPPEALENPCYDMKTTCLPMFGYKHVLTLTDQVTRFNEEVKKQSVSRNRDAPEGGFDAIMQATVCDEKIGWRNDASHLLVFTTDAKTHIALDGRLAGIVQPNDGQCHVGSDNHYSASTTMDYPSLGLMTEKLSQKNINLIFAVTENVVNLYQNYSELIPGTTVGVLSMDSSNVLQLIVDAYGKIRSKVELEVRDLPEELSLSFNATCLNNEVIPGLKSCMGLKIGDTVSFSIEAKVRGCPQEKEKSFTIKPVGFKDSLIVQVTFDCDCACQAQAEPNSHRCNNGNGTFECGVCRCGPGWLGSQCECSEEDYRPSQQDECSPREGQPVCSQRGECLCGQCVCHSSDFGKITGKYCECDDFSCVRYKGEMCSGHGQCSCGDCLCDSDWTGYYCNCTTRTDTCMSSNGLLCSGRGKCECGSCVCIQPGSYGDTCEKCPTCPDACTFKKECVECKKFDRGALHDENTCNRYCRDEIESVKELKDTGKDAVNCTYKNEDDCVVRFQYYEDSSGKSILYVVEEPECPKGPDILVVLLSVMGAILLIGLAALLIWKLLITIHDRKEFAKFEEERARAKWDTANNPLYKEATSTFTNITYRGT
T1 sequence (P08514 32-887 limits assumed): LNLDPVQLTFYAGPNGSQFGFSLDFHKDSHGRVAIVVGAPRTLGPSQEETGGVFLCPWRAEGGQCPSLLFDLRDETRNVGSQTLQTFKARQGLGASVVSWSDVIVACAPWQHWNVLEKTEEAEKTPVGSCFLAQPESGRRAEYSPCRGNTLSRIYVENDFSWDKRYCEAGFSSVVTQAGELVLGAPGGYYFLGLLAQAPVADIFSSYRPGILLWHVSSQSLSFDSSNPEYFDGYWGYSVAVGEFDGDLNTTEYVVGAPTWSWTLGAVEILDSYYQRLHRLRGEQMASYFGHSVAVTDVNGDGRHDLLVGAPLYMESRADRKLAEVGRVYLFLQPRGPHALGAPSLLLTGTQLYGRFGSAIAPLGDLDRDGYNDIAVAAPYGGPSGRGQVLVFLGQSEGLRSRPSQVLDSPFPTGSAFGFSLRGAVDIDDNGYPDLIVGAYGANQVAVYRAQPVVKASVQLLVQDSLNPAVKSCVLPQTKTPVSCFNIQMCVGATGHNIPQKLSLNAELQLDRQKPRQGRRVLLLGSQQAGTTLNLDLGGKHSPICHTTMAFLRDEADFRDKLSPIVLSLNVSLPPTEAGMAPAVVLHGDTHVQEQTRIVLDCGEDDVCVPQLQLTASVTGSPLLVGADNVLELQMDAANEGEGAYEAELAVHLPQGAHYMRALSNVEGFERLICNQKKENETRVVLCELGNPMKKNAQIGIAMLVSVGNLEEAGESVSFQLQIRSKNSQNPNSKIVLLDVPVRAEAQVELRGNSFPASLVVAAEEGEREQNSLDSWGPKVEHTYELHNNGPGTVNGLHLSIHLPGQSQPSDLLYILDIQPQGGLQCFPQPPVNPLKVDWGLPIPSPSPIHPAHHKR
T1 sequence (P08514 891-1039 limits assumed): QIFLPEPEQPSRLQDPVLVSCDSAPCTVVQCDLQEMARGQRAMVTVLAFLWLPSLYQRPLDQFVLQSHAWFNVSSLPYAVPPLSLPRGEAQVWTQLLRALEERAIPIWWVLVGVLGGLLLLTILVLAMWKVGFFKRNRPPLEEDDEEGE

As for `N=C(N)NCCC[C@@H]1NC(=O)[C@@H]2CCCN2C(=O)CNC(=O)[C@H]2CCCN2C(=O)[C@H](CC(=O)O)NC(=O)CNC1=O`, in assay [1], the Ki was more than 100 µM. `CN(C(=O)c1ccccc1S)[C@@H](CCCNC(=N)N)C(=O)NCC(=O)N[C@@H](CC(=O)O)C(=O)Nc1ccccc1S`: the Ki in assay [2] turned out to be 0.004 µM. With `CC(=O)N[C@@H](CS)C(=O)N(C)[C@@H](CCCN=C(N)N)C(=O)NCC(=O)N[C@@H](CC(=O)O)C(=O)N[C@H](C(N)=O)C(C)(C)S`, the affinity in assay [2], expressed as Ki, was 0.175 µM. As for `CC(=O)N[C@@H](CS)C(=O)N[C@H](CCCN=C(N)N)C(=O)NCC(=O)N[C@@H](CC(=O)O)C(=O)N[C@H](C(N)=O)C(C)(C)S`, in assay [2], the Ki is 3.3 µM. `N=C(N)NCCC[C@@H]1NC(=O)[C@@H]2CCCN2C(=O)[C@@H](Cc2ccccc2)NC(=O)CNC(=O)[C@H](CC(=O)O)NC(=O)CNC1=O` had a Ki in assay [1] of 18.5 µM. In turn, `CC(=O)N[C@@H](CS)C(=O)N[C@@H](CCCN=C(N)N)C(=O)NCC(=O)N[C@@H](CC(=O)O)C(=O)NC(C(N)=O)C(C)(C)S` (stereo in doubt) registered a Ki in assay [3] of 3.13 µM.
